Data reported in patent US9486536B2 (Immunomedics, Inc., priority 2013, dated 2016).

What was measured:
[1] = test system: Capan-1 human pancreatic adenocarcinoma xenografts; assay: therapy of Capan-1 xenografts in nude mice; format: in vivo
Method: FIG. 2. Therapy in nude mice bearing s.c. human tumor xenografts using 2.25 mg/kg protein dose (0.064 mg/kg of drug dose) of MAb-P2PDox conjugates twice weekly×2 weeks in nude mice with Capan-1 human pancreatic adenocarcinoma xenografts (n=5).
Tumors were measured and mice weighed twice a week.
At 63 days after Capan-1 tumor injection (with therapy starting at 1 days post-innoculation), 0 of 10 mice were alive in the saline control, 10 of 10 mice were alive in mice treated twice weekly×2 weeks with 45 μg of hPAM4-P2PDox, 2 of 10 mice were alive in mice treated twice weekly×2 weeks with 45 μg of hA20-P2PDox, 0 of 10 mice were alive in mice treated twice weekly×4 weeks with 250 μg of hPAM4-SN-38, and 0 of 10 mice were alive in mice treated twice weekly×4 weeks with 250 μg of h20-SN-38.

[2] = test system: MDA-MB-468 human breast carcinoma xenografts; assay: therapy of MDA-MB-468 xenografts in nude mice; format: in vivo
[3] = test system: BxPC3 human pancreatic carcinoma xenografts; assay: therapy of BxPC3 xenografts in nude mice; format: in vivo
[4] = test system: NCI-N87 gastric carcinoma cells; assay: cell binding, conjugate vs unconjugated antibody; parameters: species or system human; conditions: 6 molecules of P2PDox per antibody (not shown)
[5] = test system: MDA-MB-468, AG S, NCI-N87 and Capan-1 solid tumor cell lines; assay: cytotoxicity of P2PDox-mAb conjugates to target cells; format: cell-based, human; conditions: not shown
Text: The cytotoxicity of P2PDox-mAb conjugates to target cells was examined. hRS7-P2PDox and hMN-15-P2PDox were cytotoxic to MDA-MB-468, AG S, NCI-N87 and Capan-1 solid tumor cell lines (not shown). hMN-14-P2PDox was cytotoxic to Capan-1, BxPC-3 and AsPC-1 human pancreatic tumor lines and AGS, NCI-N87 and LS147T human gastric and colonic tumor lines (not shown). hLL2-P2PDOx was cytotoxic to Daudi, Raji, Ramos and JVM-3 hematopoietic tumor lines (not shown). IC50 values for the conjugates were in the nanomolar concentration range (not shown).

[6] = test system: triple-negative breast cancer; assay: treatment of triple-negative breast cancer patients; format: in vivo, human
Method: P2PDox-hRS7 ADC is prepared as described in Examples 1 and 3 above. Patients with triple-negative breast cancer who had failed at least two standard therapies receive 3 cycles of 70 mg P2PDox-hRS7 injected i.v. every 3 weeks. Objective responses are observed at this dose level of P2PDox-hRS7, with an average decrease in tumor volume of 35%, after two cycles of therapy. All serum samples evaluated for human anti-hRS7 antibody (HAHA) are negative.

Substance: hRS7-P2PDox
- established tumors regressed ([1]; 4 doses of 45 μg in 2 weeks, therapy began 7 days after transplantation, no re-growth): 100%
- inhibition of tumor growth compared with the SN-38 conjugate of the same antibody ([1]; not shown): more effective at inhibiting tumor growth
- antitumor effects ([2]; 2.25 mg/kg protein dose twice weekly×2 weeks): specific and significant antitumor effects
- inhibition of growth compared with hRS7-SN-38 ([2]; not shown): slightly more effective
- inhibition of growth compared with hRS7-SN-38 ([3]; PxPC-3 pancreatic cancer (not shown)): substantially more effective
- antitumor effects ([3]; second pancreatic cancer xenograft, 2.25 mg/kg protein dose twice weekly×2 weeks): specific and significant antitumor effects
- binding of the antibody moiety vs unconjugated hRS7 [4]: No significant difference in binding
- cytotoxicity [5]: cytotoxic
- average decrease in tumor volume ([6]; 70 mg i.v. every 3 weeks, after two cycles of therapy): 35%
- human anti-hRS7 antibody (HAHA) in serum samples ([6]; human, in vivo): negative
